Laboratory results reported in paper PMC7587960 (Molecules, 2020).
Converted amounts (≈) assume the structure as drawn. “Also recorded” adds a separate entry of the source. Like-named read-outs stand apart in the source and are kept apart here.

How the values were obtained:
[1] = test system: influenza A virus (A/Panama/2007/1999 (H3N2)); parameters: method as in PMID 31826721; details: pre-treatment for 1 h, human lung tissues, IAV A/Panama/2007/1999 (H3N2); cited from earlier work
[2] = test system: influenza A virus (strain A/WSN/33 (H1N1)) proteins PB1, NP, M1, NS1; type: cell-based
[3] = test system: influenza A virus (strain A/WSN/33 (H1N1)) RNA transcription; type: cell-based
[4] = biological target: IAV polymerase (PB1, PB2, PA, NP) (Influenza A virus, UniProt P03427+P03430+P15659); type: cell-based
[5] = biological target: viral polymerase complex (PA, PB1, NP, Strep-PB2) (Influenza A virus, UniProt P03427+P03430+P15659); type: cell-based
[6] = test system: influenza A virus (A/Panama/2007/1999 (H3N2))
[7] = test system: influenza A virus (strain A/WSN/33 (H1N1)); details: for IC50: read-out: IC50 IAV (Strain WSN/33 (H1N1)), A549 cells
[8] = test system: influenza A virus (strain A/WSN/33 (H1N1))
Na+/K+-ATPase = test system: Na+/K+-ATPase; parameters: method as in PMID 30798081; details: cited from earlier work
in vitro [9] = details: human
Description: (§1) A549 and MDCK cells were seeded in 96-well plates and grown overnight. […] Next, 15 µL of sterile water or Triton X-100 10% (CytoSelect^TM LDH Cytotoxicity Assay Kit) were added to each well in DMEM or MEM, for 10 min, at room temperature. Supernatants were collected and stored at −80 °C until used. Supernatants (90 µL) were transferred to clean 96-well plates and 10 µL of LDH Reagent (CytoSelect^TM LDH Cytotoxicity Assay Kit) were added to each sample and incubated for 20 min. Quantification was performed using a spectrophotometer at 405 nm. The concentration of each sample that reduced cell viability by 50% was estimated as CC50.

in vitro [10] = details: dog
Description: as §1

[11] = test system: influenza A virus (strain A/WSN/33 (H1N1)); assay: microbe, parasite or virus in culture; details: A549, 24 h, read-out: IC50 IAV (Strain WSN/33 (H1N1)), A549 cells
[12] = test system: influenza A virus (strain A/WSN/33 (H1N1)); assay: microbe, parasite or virus in culture; details: MDCK, 24 h, read-out: IC50 IAV (Strain WSN/33 (H1N1)), MDCK cells
[13] = test system: human tumor-free lung tissue explants; assay: Viability of human tumor-free lung explants (LDH release); details: treated lung tissues, 48 h p.i.
IAV (strain A/PR/8/34) = test system: IAV (strain A/PR/8/34); parameters: method as in PMID 21899996; details: MDCK cells, cited from earlier work

CO/C1=C\C(C)=C\[C@@H](C)[C@@H](O)[C@@H](C)C/C(C)=C/C=C/[C@H](OC)[C@@H]([C@@H](C)[C@@H](O)[C@H](C)[C@@]2(O)C[C@@H](O)[C@H](C)[C@@H](C(C)C)O2)OC1=O [bafilomycin A]
IAV replication in lung tissues [1]: abolished IAV replication

C[C@]12CC[C@H](NC(=O)CNCCO)C[C@H]1CC[C@@H]1[C@@H]2CC[C@]2(C)[C@@H](C3=CC(=O)OC3)CC[C@]12O [C10]
early (NS1, NP, PB1) and late (M1) viral protein expression [2]: decreased | viral mRNA levels (NP segment 5, M1 segment 7) [3]: decreased | decrease of polymerase activity [4]: > 50% | viral polymerase complex assembly (PA, PB1, NP in complex precipitates) [5]: interfered | reduction of viral titers [6]: 4 logs | viral replication / viral titers [6]: completely abrogated viral replication; also recorded: below the detection limit | reduction of viral titers [7]: > 50% | IC50 [7]: 57 ± 2 nM | fold by which the IC50 of oleandrigenin-β-D-glucosyl (1→4)-β-D-digitalose is higher than that of the compound [8]: 19 fold | Na+/K+-ATPase inhibition (Na+/K+-ATPase): inhibited | CC50 (in vitro [9]): > 5000 nM | CC50 (in vitro [10]): > 5000 nM | IC50 [11]: ~60 nM | IC50 [12]: ~60 nM | tissue integrity / tissue toxicity (LDH release) [13]: did not reduce tissue integrity

COC1C(O)C(OC2CCC3(C)C(CCC4C3CCC3(C)C(C5=CC(=O)OC5)C(OC(C)=O)CC43O)C2)OC(C)C1OC1OC(CO)C(O)C(O)C1O [oleandrigenin-β-D-glucosyl (1→4)-β-D-digitalose]
IC50 (IAV (strain A/PR/8/34); strain A/PR/8/34, converted from µg/mL, read-out: IC50, IAV titer reduction): 1140 nM | IC50, IAV titer reduction (IAV (strain A/PR/8/34); strain A/PR/8/34): 0.86 µg/mL (≈ 1.14 µM)

C[C@]12CC[C@H](O)C[C@H]1CC[C@@H]1[C@@H]2CC[C@]2(C)[C@@H](C3=CC(=O)OC3)CC[C@]12O [Digitoxigenin, digitoxigenin, reference compound]
SI (CC50/IC50), A549 cells [7]: 92.366 | reduction of viral titers [7]: > 50% | SI (CC50/IC50), MDCK cells [8]: 88.052 | CC50 at 24 h (in vitro [9]): > 5000 nM | CC50 at 24 h (in vitro [10]): > 5000 nM | IC50 [11]: 70 ± 10 nM | IC50 [12]: 72 ± 5 nM

C[C@]12CC[C@H](NC(=O)CO)C[C@H]1CC[C@@H]1[C@@H]2CC[C@]2(C)[C@@H](C3=CC(=O)OC3)CC[C@]12O [C11, 3β-(hydroxyacetyl)amino-3-deoxydigitoxigenin]
early (NS1, NP, PB1) and late (M1) viral protein expression [2]: decreased | viral mRNA levels (NP segment 5, M1 segment 7) [3]: decreased | decrease of polymerase activity [4]: approximately 40% | reduction of polymerase activity [4]: no significant reduction | viral polymerase complex assembly (PA, PB1, NP in complex precipitates) [5]: interfered | viral replication / viral titers [6]: abolished viral replication; also recorded: below the detection limit | reduction of viral titers [7]: > 50% | IC50 [7]: 62 nM | fold by which the IC50 of oleandrigenin-β-D-glucosyl (1→4)-β-D-digitalose is higher than that of the compound [8]: 17 fold | IC50 ([8]; read-out: IC50 IAV (Strain WSN/33 (H1N1)), MDCK cells): 66 ± 6 nM | Na+/K+-ATPase inhibition (Na+/K+-ATPase): inhibited | CC50 (in vitro [9]): > 5000 nM | CC50 (in vitro [10]): > 5000 nM | IC50 [11]: ~60 nM | IC50 [12]: ~60 nM | tissue integrity / tissue toxicity (LDH release) [13]: > 2 fold over control
